Measurements as given in the NIST ThermoML archive (doi:10.1016/j.jct.2016.10.033).
Numbers after ± are expanded uncertainties.

Assay: xn = mol fraction of the nth substance listed
Settings: 103 kPa, Liquid, Vibrating tube method

CO[Si](C)(C)OC [dimethoxydimethylsilane] + CO[Si](C)(OC)c1ccccc1
mass density [kg/m3]
Settings	298.15 K	303.15 K	308.15 K	313.15 K	318.15 K
x2 = 0	857.9 ± 0.41	852.05 ± 0.41	846.16 ± 0.41	840.22 ± 0.42	834.24 ± 0.42
x2 = 0.0501	867.91 ± 0.41	862.2 ± 0.42	856.41 ± 0.42	850.61 ± 0.42	844.75 ± 0.42
x2 = 0.1001	877.51 ± 0.41	871.89 ± 0.41	866.22 ± 0.41	860.51 ± 0.42	854.76 ± 0.42
x2 = 0.15	886.69 ± 0.41	881.2 ± 0.41	875.64 ± 0.41	870.06 ± 0.41	864.46 ± 0.42
x2 = 0.2	895.55 ± 0.41	890.16 ± 0.41	884.71 ± 0.41	879.29 ± 0.41	873.78 ± 0.41
x2 = 0.25	904.02 ± 0.41	898.68 ± 0.41	893.28 ± 0.41	887.86 ± 0.41	882.41 ± 0.41
x2 = 0.2999	912.17 ± 0.41	906.9 ± 0.41	901.56 ± 0.41	896.2 ± 0.41	890.82 ± 0.41
x2 = 0.3499	920.17 ± 0.41	914.94 ± 0.41	909.7 ± 0.41	904.52 ± 0.41	899.24 ± 0.41
x2 = 0.4001	927.65 ± 0.41	922.49 ± 0.41	917.31 ± 0.41	912.1 ± 0.41	906.86 ± 0.41
x2 = 0.4501	934.96 ± 0.41	929.92 ± 0.41	924.83 ± 0.41	919.75 ± 0.41	914.64 ± 0.41
x2 = 0.5001	942 ± 0.41	936.98 ± 0.41	931.93 ± 0.41	926.87 ± 0.41	921.78 ± 0.41
x2 = 0.55	948.79 ± 0.41	943.85 ± 0.41	938.85 ± 0.41	933.86 ± 0.41	928.85 ± 0.41
x2 = 0.6	955.36 ± 0.41	950.46 ± 0.41	945.52 ± 0.41	940.57 ± 0.41	935.6 ± 0.41
x2 = 0.6499	961.69 ± 0.41	956.82 ± 0.41	951.89 ± 0.41	946.97 ± 0.41	942.03 ± 0.41
x2 = 0.6999	967.83 ± 0.41	962.98 ± 0.41	958.11 ± 0.41	953.22 ± 0.41	948.33 ± 0.41
x2 = 0.75	973.78 ± 0.41	968.97 ± 0.41	964.15 ± 0.41	959.31 ± 0.41	954.48 ± 0.41
x2 = 0.7997	979.5 ± 0.41	974.72 ± 0.41	969.93 ± 0.41	965.13 ± 0.41	960.32 ± 0.41
x2 = 0.8499	985.08 ± 0.41	980.34 ± 0.41	975.58 ± 0.41	970.81 ± 0.41	966.02 ± 0.41
x2 = 0.8999	990.48 ± 0.41	985.77 ± 0.41	981.05 ± 0.41	976.33 ± 0.41	971.59 ± 0.41
x2 = 0.95	995.72 ± 0.41	991.04 ± 0.41	986.35 ± 0.41	981.66 ± 0.41	976.95 ± 0.41

C=C[Si](C)(OCC)OCC [methylvinyldiethoxysilane] + CO[Si](C)(OC)c1ccccc1
mass density [kg/m3]
Settings	298.15 K	303.15 K	308.15 K	313.15 K	318.15 K
x2 = 0	856.25 ± 0.41	851.09 ± 0.41	845.89 ± 0.41	840.71 ± 0.41	835.44 ± 0.41
x2 = 0.05	863.72 ± 0.41	858.61 ± 0.41	853.46 ± 0.41	848.28 ± 0.41	843.09 ± 0.41
x2 = 0.1001	871.17 ± 0.41	866.08 ± 0.41	860.96 ± 0.41	855.82 ± 0.41	850.66 ± 0.41
x2 = 0.1499	878.58 ± 0.41	873.53 ± 0.41	868.43 ± 0.41	863.33 ± 0.41	858.2 ± 0.41
x2 = 0.2001	885.98 ± 0.41	880.95 ± 0.41	875.9 ± 0.41	870.83 ± 0.41	865.74 ± 0.41
x2 = 0.2501	893.45 ± 0.41	888.45 ± 0.41	883.43 ± 0.41	878.38 ± 0.41	873.33 ± 0.41
x2 = 0.3	900.68 ± 0.41	895.69 ± 0.41	890.69 ± 0.41	885.67 ± 0.41	880.64 ± 0.41
x2 = 0.3499	907.99 ± 0.41	903.05 ± 0.41	898.08 ± 0.41	893.09 ± 0.41	888.08 ± 0.41
x2 = 0.4	915.28 ± 0.41	910.36 ± 0.41	905.41 ± 0.41	900.45 ± 0.41	895.47 ± 0.41
x2 = 0.4501	922.58 ± 0.41	917.68 ± 0.41	912.77 ± 0.41	907.84 ± 0.41	902.89 ± 0.41
x2 = 0.5	929.75 ± 0.41	924.84 ± 0.41	919.93 ± 0.41	915 ± 0.41	910.05 ± 0.41
x2 = 0.5499	937 ± 0.41	932.14 ± 0.41	927.28 ± 0.41	922.39 ± 0.41	917.49 ± 0.41
x2 = 0.6	944.21 ± 0.41	939.4 ± 0.41	934.57 ± 0.41	929.72 ± 0.41	924.87 ± 0.41
x2 = 0.65	951.55 ± 0.41	946.75 ± 0.41	941.94 ± 0.41	937.11 ± 0.41	932.27 ± 0.41
x2 = 0.6999	958.48 ± 0.41	953.71 ± 0.41	948.92 ± 0.41	944.12 ± 0.41	939.31 ± 0.41
x2 = 0.75	965.63 ± 0.41	960.89 ± 0.41	956.12 ± 0.41	951.35 ± 0.41	946.57 ± 0.41
x2 = 0.7999	972.72 ± 0.41	968 ± 0.41	963.25 ± 0.41	958.51 ± 0.41	953.74 ± 0.41
x2 = 0.85	979.76 ± 0.41	975.05 ± 0.41	970.33 ± 0.41	965.59 ± 0.41	960.85 ± 0.41
x2 = 0.8998	987.03 ± 0.41	982.34 ± 0.41	977.65 ± 0.41	972.94 ± 0.41	968.23 ± 0.41
x2 = 0.9499	993.78 ± 0.41	989.11 ± 0.41	984.43 ± 0.41	979.74 ± 0.41	975.03 ± 0.41
